Test results from paper PMC6855259, “Acylation-coupled lipophilic induction of polarisation (Acyl-cLIP): a universal assay for lipid transferase and hydrolase enzymes” (Chemical Science, 2019).
Counter-ions that a name gives are not always drawn. Like-named read-outs stand apart in the source and are kept apart here. Values belong to the molecule of their own block, whether it stands above or below them. Where a SMILES comes first, the peptide text is derived from it. Where no end group is shown, it is not given here.

Legend:
HHAT [1] = target: T1, HHAT (Homo sapiens, UniProt Q5VTY9); experiment: HHAT Acyl-cLIP assay with HHAT-P100(sol): SHH-FAM palmitoylation, dose-response and kinetics; format: biochemical
T1 construct: FLAG (C); His (C); made in house; host or cells: HEK293a cells stably overexpressing HHAT-FLAG-His
Experimental: Recombinant Protein Production
HHAT-enriched solubilised membrane fractions (HHAT-P100(sol)) were prepared as previously described,[4] with the following modifications. HEK293a cells overexpressing HHAT-FLAG-His (HEK293a HHAT+) were cultured, harvested by trypsinisation, and washed with PBS as previously described.[9] Cells (5 × 106) in DMEM/FBS (35 mL) were inoculated on sterilised CultiSphere S microcarriers (100 mg) in a spinner flask (Corning), and incubated as previously described. After 24 h, DMEM/FBS (15 mL) was added and cells incubated with stirring (~30 rpm), with addition on DMEM/FBS (50 mL) after 24 h. DMEM/FBS (50 mL) was refreshed every subsequent 24 h. After 5 days, microcarriers were collected by centrifugation (1,000 g, 1 min), and washed with PBS (25 mL). Microcarriers were digested with trypsin (3 mL) with visual monitoring by microscopy (5-15 min, see Supplementary Figure S11D) to release HEK293a HHAT+ cells, which were washed with DMEM/FBS (25 mL) and PBS […]
(25 mL). […]
25 kPSI through a Cell Disruptor (Constant Systems). Lysates were cleared by centrifugation (20,000 g, 30 min, 4 °C), and the supernatant passed through a HisTrap™ Fast Flow column (GE Healthcare). Bound protein was eluted with elution buffer (50 mM TRIS, 150 mM NaCl, 300 mM imidazole, pH 8.8), and concentrated to 2 mL in a Protein Concentrator PES (Pierce, 10,000 MWCO). The sample was cleared by centrifugation (20,000 g, 5 min, 4 °C) and purified using a S75 16/600 gel filtration column (Generon), eluting with storage buffer (50 mM TRIS, 150 mM NaCl, pH 7.4). Fractions containing protein were pooled, concentrated (5 mg/mL APT1, 4 mg/mL APT2), flash frozen, and stored at −80 °C.
Fluorescence measurements were recorded on an EnVision Xcite 2104 (PerkinElmer).
FAM-labelled peptides were measured using a FITC FP D505fp mirror module, FITC FP 480 nm excitation filter (30 nm bandwidth), FITC FP P-pol 535 nm first emission filter (40 nm bandwidth), and FITC FP S-pol 535 nm second emission filter (40 nm bandwidth). Continuous reaction monitoring was conducted using measurement height = 9.52 mm, 8 flashes/well, PMT gain = 319, and G-factor = 1.09. For the HHAT pilot screen, stopped-assay measurements were performed using measurement height = 9.52 mm, 60 flashes/well, PMT gain = 319, and G-factor = 1.09. The NMT acyl-cLIP assay continuous reaction monitoring was conducted using measurement height = 6.6 mm, 1 flash/well, PMT gain = 163, and G- […]
TAMRA-labelled peptides were measured using a BODIPY TMR FP D555fp mirror module, BODIPY TMR FP 531 nm excitation filter (25 nm bandwidth), BODIPY TMR FP P-pol 579 nm first emission filter (25 nm bandwidth), and BODIPY TMR FP S-pol 579 nm second emission filter (25 nm bandwidth). Continuous reaction monitoring was conducted using measurement height = 6.5 mm, 200 flashes/well, PMT gain = 255, and G-factor = 1.6.
HHAT-P100(sol) (450 µg/mL) in solubilisation buffer (20 mM HEPES, 350 mM NaCl, 1% (w/v) DDM, 5% glycerol, pH 7.3) was diluted 1:10 in SHH-FAM (2 µM) in reaction buffer (100 mM MES, 20 mM NaCl, 1 mM DTT, 1 mM TCEP, 0.1% (w/v) BSA, pH 6.5). The HHAT/SHH-FAM solution (12 µL/well) was dispensed into a black 384-well plate (Corning, 3575). The reaction was initiated by addition of Pal-CoA (7.5 µM) in reaction buffer (8 µL/well), and fluorescence readings collected every 1 min for 1 h. Under stopped-assay conditions, the reaction was halted by addition of SHH (220 µM) in reaction buffer (2 µL).
Detergents (2 mM) or BSA (0.15 mM) were tested for generation of polarised fluorescence from Pal-SHH-FAM or SHH-FAM (0.1 µM) in 100 mM MES, 20 mM NaCl. Detergent and BSA titrations were performed using 2-fold serial dilutions.
Small molecule inhibitors in DMSO were dispensed using an Echo 550 liquid handler (Labcyte), with a DMSO backfill volume of 50 nL. Substrate competitors SHH, SHH(FL), or Pal-SHH were serially diluted in reaction buffer (1:3) prior to addition to the HHAT/SHH-FAM […]
solution. […]

HHAT [2] = target: T1, HHAT; experiment: Pilot HTS Acyl-cLIP screen of FDA-approved drugs, purified HHAT, stopped-assay conditions; format: biochemical; details: compounds screened at 25 μM
[3] = tested on: SHH acylation in HEK-293 SHH+ cells; experiment: In-cell YnC15 tagging assay of SHH acylation; format: cell-based, human; details: inhibitors 20 µM, YnC15, AzTB ligation
Experimental: In-Cell YnC15 Tagging Assay
HEK293a SHH+ cells (500,000 cells/well) were plated in a 6-well plate in DMEM/FBS (3 mL/well) and cultured for 24 h. Cells were treated with inhibitors in DMSO (20 µM), two RUSKI-201 (20 µM) blind-positive controls and two DMSO (7.5 µL) blind-negative controls.
After 1 h, YnC15 (3 µL, 20 mM in DMSO) was added and cells cultured for a further 6 h before washing with PBS. Cells were lysed in PBS with Triton X-100 (1%), SDS (0.1% (w/v)) and Complete EDTA-free protease inhibitor cocktail (Roche Diagnostics). Cells were removed from plates by scraping, and lysates centrifuged (13,000 g, 10 min, 4 °C). The protein concentration of the supernatant was estimated using the DC Protein Assay (Bio-Rad) and adjusted to 1 mg/mL with lysis buffer. AzTB (1 µL, 10 mM in DMSO), CuSO4 (2 µL, 50 mM in H2O), TCEP (2 µL, 50 mM in H2O) and TBTA (1 µL, 10 mM in DMSO) were combined, and this mixture (6 µL) added to the lysate (100 µL). Samples were shaken at RT for 1 h, then proteins precipitated by addition of methanol (200 µL), chloroform (50 µL) and water (100 µL) followed by centrifugation (13,000 g, 5 min, 4 °C). The upper aqueous layer was removed without disturbing the protein layer at the interphase, methanol (0.5 mL) was added, and the precipitated proteins isolated by centrifugation (13,000 g, 10 min, 4 °C). Protein pellets were […]
washed twice with methanol, briefly air-dried and re-dissolved in PBS containing SDS (0.2% (w/v)) and DTT (0.1 mM) using sonication to a final concentration of 1 mg/mL.
10 µg of protein were separated on a 15% SDS-polyacrylamide gel. Fluorescence was recorded using a Typhoon imager (GE Healthcare; excitation laser: 532 nm, emission filter:
Proteins were transferred to a nitrocellulose membrane by wet transfer (100 V, 1 h), and membranes blocked with BSA (5% (w/v)) in TBS-T (50 mM TRIS, 150 mM NaCl, 0.1% Tween-20, pH 7.5) for 1 h at RT, followed by overnight incubation at 4°C with rabbit α-SHH (Santa Cruz Biotechnology; sc-9024; 1:200) in TBS-T with BSA (0.5% (w/v)) or mouse α-Tubulin (Santa Cruz Biotechnology; sc-8035; 1:200) in TBS-T with BSA (0.5% (w/v)). Membranes were washed with TBS-T (4 × 5 min) and incubated at RT for 1 h with HRP-conjugated Goat-α-mouse IgG (Advansta; 1:10,000) in TBS-T with BSA (0.5% (w/v)) or Goat-α-rabbit IgG (Advansta; 1:10,000) in TBS-T with BSA (0.5% (w/v)). Membranes were washed with TBS-T (4 × 5 min) and developed with Luminata Crescendo Western HRP substrate (Millipore) on a Fujifilm LAS-3000 imager. YnC15-labelled SHH band intensities were quantified using ImageJ 1.50i (National Institute of Health, USA).
HEK293a SHH+ cells (5,000 cells/well) were plated in a 96-well plate in DMEM/FBS […]
(50 µL/well) and cultured for 24 h. […]

[4] = Detergent/BSA titration for polarised emission of Pal-SHH-FAM (fluorescence anisotropy); details: BSA titration with Pal-SHH-FAM; read-out: polarisation EC50
[5] = HHAT, SHH-FAM substrate competition, read-out: IC50 as competitive inhibitor of SHH-FAM palmitoylation
[6] = HHAT-P100(sol) activity, SHH-FAM palmitoylation, 25 min reaction, four parameter fit, read-out: IC50 of HHAT inhibition

T1 sequence (Q5VTY9 whole entry): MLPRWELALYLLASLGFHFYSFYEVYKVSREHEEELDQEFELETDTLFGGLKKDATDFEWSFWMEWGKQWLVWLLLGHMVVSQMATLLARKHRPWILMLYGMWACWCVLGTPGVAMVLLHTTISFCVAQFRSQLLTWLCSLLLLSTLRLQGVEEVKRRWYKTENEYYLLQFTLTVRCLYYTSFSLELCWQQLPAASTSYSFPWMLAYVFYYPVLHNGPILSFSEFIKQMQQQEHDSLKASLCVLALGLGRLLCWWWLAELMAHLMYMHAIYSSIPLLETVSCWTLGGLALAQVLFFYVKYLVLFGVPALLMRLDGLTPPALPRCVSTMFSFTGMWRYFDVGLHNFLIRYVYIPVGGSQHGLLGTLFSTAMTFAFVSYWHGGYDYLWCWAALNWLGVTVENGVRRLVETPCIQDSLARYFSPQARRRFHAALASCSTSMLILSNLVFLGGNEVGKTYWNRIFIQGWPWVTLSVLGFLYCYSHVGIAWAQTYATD

- Vmax (HHAT [1]; Pal-CoA titration, SHH-FAM palmitoylation): 0.081 pmol min^–1
- Km (HHAT [1]; Pal-CoA titration, SHH-FAM palmitoylation, initial velocity conditions, read-out: apparent KM): 0.17 µM
- Vmax (HHAT [1]; Pal-CoA titration, initial velocity conditions): 0.081 pmol/min
Molecule: CCCCCCCCCCCCCCCC(=O)SCCNC(=O)CCNC(=O)[C@H](O)C(C)(C)COP(=O)(O)OP(=O)(O)OC[C@H]1O[C@@H](n2cnc3c(N)ncnc32)[C@H](O)[C@@H]1OP(=O)(O)O [Pal-CoA, palmitoyl-CoA]

- IC50 (HHAT [1]; [5]): 100 nM
Molecule: CCCCCCCCCCCCCCCC(=O)N[C@@H](CS)C(=O)NCC(=O)N1CCC[C@H]1C(=O)NCC(=O)N[C@@H](CCCNC(=N)N)C(=O)NCC(=O)N[C@@H](Cc1ccccc1)C(=O)NCC(=O)N[C@@H](CCCCN)C(=O)N[C@@H](CCCNC(=N)N)C(=O)N[C@@H](CCCCN)C(N)=O [Pal-SHH] (HELM PEPTIDE1{[CCCCCCCCCCCCCCCC(=O)[*:2]].C.G.P.G.R.G.F.G.K.R.K.[am]}$$$$V2.0)

- IC50 (HHAT [1]; [6]): 2000 nM
- inhibition at 25 µM (HHAT [2]): > 80%
Molecule: CCC(C)CNCC(=O)N1CCc2sccc2C1c1cccc(C)n1 (centres unmarked) [RUSKI-201]
- inhibition of SHH acylation (YnC15 tagging) by in-gel fluorescence ([3]; IGF): showed inhibition of SHH acylation
- inhibition of SHH acylation assessed by increased molecular weight in anti-SHH blotting ([3]; α-SHH western blot): displayed inhibition

- inhibition at 25 µM (HHAT [2]): > 80%
Molecule: O=C1Cc2cc(CCN3CCN(c4nsc5ccccc45)CC3)c(Cl)cc2N1 [Ziprasidone·HCl]

More lines, now with the values behind:

Molecule: SHH(FL): N-terminal signalling domain of the mature full-length SHH protein (residues 24–193), expressed in E. coli without lipid modification
- IC50 (HHAT [1]; [5]): 440 nM

Molecule: RUSKI-101
- IC50 (HHAT [1]; [6]): 2100 nM

Molecule: CCC(C)CNCC(=O)N1CCc2sccc2C1COc1cccc(C)c1 (centres unmarked) [RUSKI-43]
- IC50 (HHAT [1]; [6]): 17000 nM

Molecule: Oc1ccc(C2CNCCc3c2cc(O)c(O)c3Cl)cc1 (centres unmarked) [Fenoldopam Mesylate]
- inhibition at 25 µM (HHAT [2]): > 80%

Molecule: Cc1cc(C2CCCCC2)n(O)c(=O)c1 [Ciclopirox]
- inhibition at 25 µM (HHAT [2]): > 80%

Molecule: CGPGRGFGKRK-NH2 [SHH]
- IC50 (HHAT [1]; [5]): 370 nM

Molecule: bovine serum albumin [BSA]
- EC50 [4]: 490 nM

Molecule: RUSKI-41
- IC50 (HHAT [1]; [6]): 5700 nM
